Test results from patent US5674837A, “Stable bleomycin sulfate solution suitable for injection” (Abbott Laboratories, priority 1994, dated 1997).
Where two headings read alike, the source gives them in different places.

How the values were obtained:
[1] = cited from earlier work
Mycobacterium smegmatis = test: Storage stability of bleomycin sulfate solutions, potency by microbial agar diffusion assay; assay type: physicochemical; design: first-order degradation rate constant k: unit not given here; details: for % of Initial Drug Remaining (Potency): 3 U/mL in SWFI, RT
Description: As used herein, "stable" or "stabilizing" refers to the retention of potency of a bleomycin solution in the range of about 90-120% of its initial starting potency. Potency refers to the amount of antimicrobial activity of the bleomycin solution as determined by microbial assay and is expressed in units of activity. One unit of bleomycin is equivalent in activity to 1 mg of bleomycin A2 reference standard. A2 reference standards are well known to those of ordinary skill in the art and may be purchased from a variety of commercial suppliers. […] The assay is performed as follows:
ii. Plates for potency assay: The number of plates required per assay is dependent on the number of samples to be tested. For all tests, at least 12 plates are required to establish a standard response line (see "Standard Response Line Solutions" below) and at least 3 plates are required to determine the potency of each test sample. Plates for potency testing are prepared by evenly distributing a 10 mL base layer of melted Medium 35 to an appropriate number of plastic or glass Petri dishes (20 by 100 millimeters). The layer of base agar medium is poured into each plate on a flat level surface, and a cover placed on each plate in turn; if a nonporous cover is used, the cover is left slightly ajar to prevent accumulation of condensing moisture from the hot agar base layer. After the agar hardens, the nonporous cover is seated on each plate. To prepare the seed layer, an amount of test organism suspension (see "Test Organism Suspension" below) is added to a sufficient amount of Medium 35 (which has been melted and cooled to 48° C.-50° C.) to equal a ratio of 1 mL suspension for each 100 mL of medium. The flask is swirled to obtain a homogeneous suspension, and 6 mL of suspension then added to each of the plates containing the uninoculated base agar. The seed layer is spread evenly over the agar surface, covered and allowed to harden on a flat, level surface. After the agar has hardened, 6 cylinders (stainless steel with an outside diameter of 8 millimeters (±0.1 millimeter), an inside diameter of 6 millimeters (±0.1 millimeter), and a length of 10 millimeters (±0.1 millimeter)) are placed on the inoculated agar surface so that they are at approximately 60° intervals on a 2.8 centimeter radius.
c. Test Organism Suspension: Test organism, Mycobacterium smegmatis (Cat. #607 from the American Type Culture Collection, 12301 Parklawn Dr., Rockville, Md. 20852 ) is maintained on agar slants containing 10 mL of Medium 36 as described above and transferred to a fresh slant about once a week. Slants are Incubated at 37° C. for 48 hours immediately after transfer. To prepare the test organism suspension, 3 mL of sterile USP saline T.S., is used to wash the growth from the agar slant into a 500-mL Edenmeyer flask containing 100 mL of Medium 34 and 50 gm of glass beads. The culture is agitated by rotation at a speed of 130 cycles per minute and a radius of 3.5 centimeters at 37° C. for 5 days. The test organism suspension is stored under refrigeration for a period of up to 2 weeks.
ii. Working Standard Stock Solution: The working standard of bleomycin is prepared as follows: In an atmosphere of about 10 percent relative humidity, about 100 milligrams of a fine powder of the drug is transferred to a tared weighing bottle equipped with a ground-glass stopper. The bottle is weighed and placed in a vacuum oven, with the stopper tilted on its side so that there is no closure during the drying period. The drug is dried at a temperature of 25° C. and a pressure of 5 millimeters of mercury or less for 4 hours. At the end of the drying period, the vacuum oven is filled with air that has been dried by passing it through a drying agent such as sulfuric acid or silica gel. The stopper is replaced and the weighing bottle placed in a desiccator over a desiccating agent, such as phosphorous pentoxide or silica gel, allowed to cool to room temperature, and reweighed.

[2] = 0.1M citrate buffer, 5° C., 3 mo.
[3] = 0.1M citrate buffer, 25° C., 2 mo.
[4] = 0.1M citrate buffer, 25° C., 3 mo.
[5] = 0.1M citrate buffer, 40° C., 1 mo.
[6] = 0.1M citrate buffer, 40° C., 2 mo.
[7] = 0.1M citrate buffer, 40° C., 3 mo.

## bleomycin
[1]; 2° C.-8° C.
  time stable, reconstituted solutions: 4 weeks
[1]; in dermabase or tincture of benzoin
  stability in ointment base: quite unstable
[1]; in petrolatum ointment base, in two years
  loss of activity: 7%
[1]; in saline (Dorr et al.)
  time stable in solution: up to seven
[1]; multidose premix in sodium chloride, under refrigeration
  claimed stability time: 100 days
[1]; room temperature
  time stable, reconstituted solutions: 2 weeks
Mycobacterium smegmatis; solution in SWFI at RT, estimated from k
  shelf-life t90% (time required to reach 90% of the initial potency): ~3.44 months
Mycobacterium smegmatis; solution in SWFI at RT, from 24 month data
  first-order degradation rate constant k: ~0.03058

## bleomycin sulfate
Mycobacterium smegmatis; [2]
  % Potency Remaining: 107.3%
  Potency: 16.51 units per vial
Mycobacterium smegmatis; [3]
  % Potency Remaining: 104.1%
  Potency: 16.02 units per vial
Mycobacterium smegmatis; [4]
  % Potency Remaining: 95.2%
  Potency: 14.65 units per vial
Mycobacterium smegmatis; [5]
  % Potency Remaining: 87.1%
  Potency: 13.40 units per vial
Mycobacterium smegmatis; [6]
  % Potency Remaining: 83.1%
  Potency: 12.79 units per vial
Mycobacterium smegmatis; [7]
  % Potency Remaining: 59.3%
  Potency: 9.13 units per vial
Mycobacterium smegmatis; 0.1M citrate buffer
  starting concentration (initial potency): 15.39 units per vial
Mycobacterium smegmatis; 0 months
  % of Initial Drug Remaining (Potency): 100.0%
Mycobacterium smegmatis; 24 months
  % of Initial Drug Remaining (Potency): 48.0%
Mycobacterium smegmatis; SWFI, 5° C., 3 mo.
  % Potency Remaining: 105.0%
  Potency: 16.37 units per vial
Mycobacterium smegmatis; SWFI, 25° C., 2 mo.
  % Potency Remaining: 105.1%
  Potency: 16.38 units per vial
Mycobacterium smegmatis; SWFI, 25° C., 3 mo.
  % Potency Remaining: 101.5%
  Potency: 15.82 units per vial
Mycobacterium smegmatis; SWFI, 40° C., 1 mo.
  % Potency Remaining: 96.1%
  Potency: 14.97 units per vial
Mycobacterium smegmatis; SWFI, 40° C., 2 mo.
  % Potency Remaining: 97.7%
  Potency: 15.22 units per vial
Mycobacterium smegmatis; SWFI, 40° C., 3 mo.
  % Potency Remaining: 63.4%
  Potency: 9.88 units per vial
Mycobacterium smegmatis; SWFI
  starting concentration (initial potency): 15.58 units per vial
Mycobacterium smegmatis; citrate buffer solution, 3 months storage at 40° C.
  decrease of potency: ~40%
Mycobacterium smegmatis; citrate solutions, 25° C. and 5° C., 3 months storage
  decrease in stability: little if any, decrease in stability
